Reference: PMC7181660, “A novel specific PERK activator reduces toxicity and extends survival in Huntington's disease models” (Scientific Reports, 2020)

Tests used:
[1] = system: R6/2 HD mouse model; assay: Combined phenotype score (hind limb clasping, ledge, gait, kyphosis); assay type: in vivo, mice; settings: R6/2 TG, 1 mg/kg subcutaneous 28 days
Procedure: […]. Measures include hind limb clasping, ledge test, gait and kyphosis. See detailed information in Supplementary methods.
Group # Animals # Treatment Volume bleeding and
Determination of MK-28 levels in the plasma and brain were performed by LC/MS/MS using
generic methods in the bioanalytical lab of WuXi AppTec Co., Ltd. (Shanghai, China). The
MK-28 concentrations were determined in the plasma and whole perfused brain tissues of the
animals following a single IP injection of 10 mg/kg.
Combined phenotype: A method assessing a combination of different disease -phenotypes
was used to evaluate disease progression. Phenotypic evaluation includes hind-limb
clasping, ledge test, gait and kyphosis. Limb clasping: hind-limb clasping behavior was
evaluated and different scores were given based on their performance on a scale from 0 to 3: 0
= normal; 1 = clasps hind-limb s within 30s of being suspended in the air; 2 = cla sps hind-limb s
within 5s, recovering when released after 30s; 3 = clasps hind-limbs within 5s and has difficulty
recovering when released after 30s. Ledge test: The ledge test evaluates motor coordination by
placing mice on the ledge of the cage. Typically, mice will walk along the ledge and attempt
to descend back into the cage. Walking without losing balance is considered normal and
assigned a score of 0. A score of 1 is given if the mouse misse s its footing while walking. If […]

[2] = system: GADD34 mRNA; assay: GADD34 mRNA by qPCR in STHdh^Q7/7 and STHdh^Q111/111 cells; assay type: cell-based, murine; settings: both cell types, qPCR vs GAPDH
Procedure: Total cell RNA was extracted with TRIzol reagent (Invitrogen) according to the manufacturer's instructions. Reverse transcription (RT) was performed with QuantaBio qScript cDNA synthesis kit. Real-time qPCR was carried out using a CFX Connect Real-Time PCR Detection System (BioRad) and the amplifications were done using the SYBR Green PCR Master Mix (pcrbio). Reactions were run in triplicates in three independent experiments. Housekeeping gene GAPDH was used as an internal control to normalize the variability of expression levels.

[3] = system: R6/2 HD mouse model; assay: Rotarod test; assay type: in vivo, mice; settings: 1 mg/kg subcutaneous 28 days
Procedure: Motor activity was assessed by the rotarod test (San Diego Instruments, CA, USA) (0–25 RPM). Relative slow acceleration was used to discriminate small differences between groups particularly at advanced stages of the disease. All mice were trained together before any experimental procedure was performed to set a common baseline. They were required to stay at least 2 minutes without falling in order to participate in the study. R6/2 mice and control littermates were tested every week after pump transplantation. Each test consisted of 3 consecutive measurements of 5 minutes with inter-trial recess of 5 minutes. The latency to fall was recorded and the best performance of the three trials was considered for the analysis.

[4] = system: ATF4; assay: ATF4 protein levels by immunoblot in STHdh^Q7/7 cells; assay type: cell-based, murine; settings: high MK-28 concentration
Procedure: STHdh^Q7/7 and STHdh^Q111/111 cells were treated with different concentrations of MK-28. The concentration range was chosen in accordance to previous studies with A4. Cells were lysed with PBS containing 1% Triton X-100, 0.5% Sodium deoxycholate with protease and phosphatase inhibitors cocktails. Cocktail 2 and 3 (Sigma) were added to the lysis buffer for detection of phosphorylated proteins and lysates were incubated on ice for 30 minutes, then centrifuged at 16,000xg for 30 minutes a 4 °C. […] Immunoblotting, detection by ECL and quantitation was done as described previously.

[5] = system: eIF2α-P; assay: Brain striatum immunofluorescence of eIF2α-P / total eIF2α; assay type: in vivo, mice; settings: week 4 after pump implantation
Procedure: Under anesthesia, animals were perfused with 4% PFA (formaldehyde in phosphate-buffered saline (PBS)) and the brains were removed and soaked in 4% PFA overnight. Then, brains were incubated overnight in 30% sucrose solution and frozen in OCT compound Tissue-Tek by using dry ice. Sections (10 µm) of the striatum were obtained by cryostat. Brain sections were processed for immunochemistry with the kind help of Daniel Frenkel. They were washed with PBS for 10 minutes, incubated in 0.5% triton-X-100 for 10 minutes and then in blocking solution containing 1% bovine serum albumin (BSA), 10% normal goat serum and 0.25% triton for one hour at room temperature. The samples were rinsed with PBS and incubated overnight at 4 °C with the selected primary antibody diluted in blocking solution (eIF2α-mouse [1:400] and phosphorylated eIF2α-rabbit [1:400]). […] After washing with PBS, samples were placed in DAPI (4′,6-diamidino-2-phenylindole) diluted in PBS for 10 minutes, mounted and examined by confocal microscope Zeiss LSM-510, 3 slides were analysed from each subject.
Signal quantification and cell counting were done using the ImageJ program. The value obtained for the phosphorylated eIF2α signal was divided by the total eIF2α signal in the same image. […] Statistical significance was determined at P < 0.05.

[6] = molecular target: EIF2AK1 (HRI) (Homo sapiens, UniProt Q9BQI3); assay: In vitro HotSpot kinase assay on HRI; assay type: biochemical
Sequence of EIF2AK1 (HRI) (Q9BQI3 whole entry): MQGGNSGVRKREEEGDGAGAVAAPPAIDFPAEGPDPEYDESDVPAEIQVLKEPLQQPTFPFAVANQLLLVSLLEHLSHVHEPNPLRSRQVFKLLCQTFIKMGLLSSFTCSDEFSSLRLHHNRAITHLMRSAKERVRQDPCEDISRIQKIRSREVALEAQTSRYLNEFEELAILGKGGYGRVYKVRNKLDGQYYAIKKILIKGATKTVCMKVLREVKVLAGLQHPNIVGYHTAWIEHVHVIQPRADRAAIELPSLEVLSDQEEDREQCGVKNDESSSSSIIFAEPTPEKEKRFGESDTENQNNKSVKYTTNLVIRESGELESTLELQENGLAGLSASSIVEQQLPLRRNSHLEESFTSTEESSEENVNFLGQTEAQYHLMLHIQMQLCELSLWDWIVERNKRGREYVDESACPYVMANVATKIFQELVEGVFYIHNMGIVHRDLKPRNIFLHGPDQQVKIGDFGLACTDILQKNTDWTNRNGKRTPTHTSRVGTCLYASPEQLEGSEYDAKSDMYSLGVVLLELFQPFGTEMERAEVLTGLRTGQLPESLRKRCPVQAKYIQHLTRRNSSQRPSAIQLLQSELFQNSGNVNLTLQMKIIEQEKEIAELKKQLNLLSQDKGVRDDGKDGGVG
Procedure: In vitro kinase assays with purified components and full kinase panel analysis was done at Reaction Biology Corp. (Malvern, PA, USA) using the HotSpot Kinase Assay. Reactions were performed for 20 min at room temp. using ^33P-ATP (Specific activity 10 μCi/μl) with 1 μM total ATP, 20 μM substrate and kinases in the nanomolar range in 20 mM Hepes (pH 7.5), 10 mM MgCl2, 1 mM EGTA, 0.02% Brij35, 0.02 mg/ml BSA, 0.1 mM Na3VO4, 2 mM DTT, 1% DMSO and other required factors depending on the assayed kinase.

[7] = system: PERK-P; assay: PERK phosphorylation shift by immunoblot in MEF cells; assay type: cell-based; settings: 3 hours, Thap 2 μg/ml

SMILES: CN(/N=C\c1ccc(O)c(O)c1)c1nc(-c2ccccc2)cc(-c2ccccc2)n1 [MK-28]
- composite phenotype score ([1]; week 6): 3.14 ± 1.41
- composite phenotype score ([1]; week 8): 4.4 ± 0.55
- increase of GADD34 mRNA levels [2]: ≤ 5 fold
- motor performance (rotarod) of TG mice vs untreated TG ([3]; R6/2 TG, week 4): significant improvements in motor performance
- motor performance (rotarod) of WT animals ([3]; WT mice): no compromised motor performance
- increase of ATF4 protein levels [4]: up to 2.5 fold
- increase of eIF2α-P levels in striatum ([5]; TG mice): ~ 6 fold
- increase of eIF2α-P levels in striatum ([5]; WT mice): ~ 7 fold
- effect on EIF2AK1 (HRI) activity [6]: little or no effect
- PERK migration shift (PERK-P) [7]: shift of part of the PERK population to a slower migration
